This experiment has as its target T1, human DNA Topo II (Homo sapiens, UniProt P11388).
T1 construct: purchased USB Corp., USA
Kind of experiment: In vitro DNA Topo II-mediated relaxation assay (supercoiled pBR322). The format is biochemical. The following applies: for IC50: means of three experiments, read-out: Topo II IC50 (µM*±SD); for inhibition at 0.1 µM / inhibition at 1 µM / inhibition at 10 µM / inhibition at 100 µM: recombinant Topo II relaxation; for inhibition at 0.1 µM: compound at 0.1 μM, read-out: Percentage of inhibition of Topo II, 0.1 μM; for inhibition at 1 µM: compound at 1 μM, read-out: Percentage of inhibition of Topo II, 1 μM; for inhibition at 10 µM: compound at 10 μM, read-out: Percentage of inhibition of Topo II, 10 μM; for inhibition at 100 µM: compound at 100 μM, read-out: Percentage of inhibition of Topo II, 100 μM. The method, then:
DNA Topo II inhibitory activities of the targeted compounds were measured as follows. A mixture of 100 ng of supercoiled pBR322 plasmid DNA (Fermentas, USA) and 2 units of human DNA Topo II (USB Corp., USA) was incubated with and without the prepared compounds in the assay buffer (10 µM Tris-HCl pH 7.9) containing 50 µM NaCl, 4 µM MgCl2, 1 µM EDTA, 1 µM ATP, and 15 mg/ml bovine serum albumin for 30 min at 37 °C. The reaction in a final volume of 10 µl was terminated by the addition of 4 µl of 6 µM EDTA. DNA samples were then electrophoresed on 1% agarose gel containing 0.5 µg/ml ethidium bromide in gel and buffer at high voltage (100–250 v) until the dye front has migrated about 4–6 cm down the gel. with a running buffer of TAE Tris-acetate– EDTA (TAE). Gels were stained for 15 min in water. DNA bands were visualised by transillumination with UV light and quantitated using AlphaI-maker TM (Alpha Innotech Corporation).
Well-known Topo II inhibitor doxorubicin was used as a positive control. The reaction products of Topo II relaxation assays were analysed by electrophoretic mobility and developed in ethidium bromide in the presence of UV light. The inhibitory activities were evaluated at 4 concentrations of 100, 10, 1, and 0.1 μM for all compounds as shown in (Figure 6). Topo II inhibitory activities of the tested compounds are summarised in (Table 2).

T1 sequence (P11388 whole entry): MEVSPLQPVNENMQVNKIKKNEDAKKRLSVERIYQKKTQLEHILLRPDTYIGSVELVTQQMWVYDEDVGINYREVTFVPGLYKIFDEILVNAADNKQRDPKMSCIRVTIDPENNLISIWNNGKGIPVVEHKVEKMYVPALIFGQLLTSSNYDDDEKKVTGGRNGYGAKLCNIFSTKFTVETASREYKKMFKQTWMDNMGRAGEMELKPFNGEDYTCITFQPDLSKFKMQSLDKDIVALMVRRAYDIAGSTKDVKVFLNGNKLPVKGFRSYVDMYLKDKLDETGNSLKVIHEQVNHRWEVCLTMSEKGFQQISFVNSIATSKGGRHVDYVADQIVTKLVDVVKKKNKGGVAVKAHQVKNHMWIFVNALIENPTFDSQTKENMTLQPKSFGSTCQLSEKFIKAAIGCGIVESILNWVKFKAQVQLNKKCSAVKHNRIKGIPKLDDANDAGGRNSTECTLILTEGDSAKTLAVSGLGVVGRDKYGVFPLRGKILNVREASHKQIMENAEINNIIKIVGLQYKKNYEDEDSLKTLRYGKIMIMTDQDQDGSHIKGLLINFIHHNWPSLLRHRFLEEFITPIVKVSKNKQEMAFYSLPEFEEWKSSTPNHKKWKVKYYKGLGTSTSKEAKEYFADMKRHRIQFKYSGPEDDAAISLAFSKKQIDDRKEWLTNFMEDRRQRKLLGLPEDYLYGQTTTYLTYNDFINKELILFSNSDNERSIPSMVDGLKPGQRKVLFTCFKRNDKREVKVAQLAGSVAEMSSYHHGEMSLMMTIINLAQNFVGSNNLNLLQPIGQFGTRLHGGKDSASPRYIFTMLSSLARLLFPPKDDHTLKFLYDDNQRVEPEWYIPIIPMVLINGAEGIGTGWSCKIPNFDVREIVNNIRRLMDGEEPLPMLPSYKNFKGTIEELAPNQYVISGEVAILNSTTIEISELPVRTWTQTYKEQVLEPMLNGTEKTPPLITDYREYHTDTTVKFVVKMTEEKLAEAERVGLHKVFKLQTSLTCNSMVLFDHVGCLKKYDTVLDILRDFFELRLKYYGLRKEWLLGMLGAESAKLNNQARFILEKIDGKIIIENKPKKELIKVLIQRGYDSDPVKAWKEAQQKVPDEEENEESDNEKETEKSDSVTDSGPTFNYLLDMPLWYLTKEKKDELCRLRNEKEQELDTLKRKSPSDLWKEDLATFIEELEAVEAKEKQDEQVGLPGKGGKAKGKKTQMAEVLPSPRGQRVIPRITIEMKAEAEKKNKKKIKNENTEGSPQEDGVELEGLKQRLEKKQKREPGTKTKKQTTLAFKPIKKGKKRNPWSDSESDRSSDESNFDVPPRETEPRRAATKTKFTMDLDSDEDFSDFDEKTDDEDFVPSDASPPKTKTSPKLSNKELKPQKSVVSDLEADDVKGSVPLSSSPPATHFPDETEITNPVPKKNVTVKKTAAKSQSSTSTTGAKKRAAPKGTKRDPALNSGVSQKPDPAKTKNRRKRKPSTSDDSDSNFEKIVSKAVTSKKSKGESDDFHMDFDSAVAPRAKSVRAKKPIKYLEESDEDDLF

For the molecule `O=C(CN1CCN(c2cc3c(cc2F)c(=O)c(C(=O)O)cn3C2CC2)CC1)NN=C1C(=O)Nc2ccccc21` [Compound 8a, 1-Cyclopropyl-6-fluoro-4-oxo-7-(4-(2-oxo-2-(2-(2-oxoindolin-3-ylidene)hydrazinyl)ethyl)piperazin-1-yl)-1,4-dihydroquinoline-3-carboxylic acid], the half-maximal inhibitory concentration (IC50) amounted to 0.74 ± 0.04 µM, the inhibition at 0.1 µM is 32.5%, the inhibition at 1 µM was determined as 50.3% and the inhibition at 10 µM is 77.4%. Besides, the inhibition at 100 µM amounted to 91.6%.

For `O=C1CC(=O)N(C(=O)CN2CCN(c3cc4c(cc3F)c(=O)c(C(=O)O)cn4C3CC3)CC2)N1` [Compound 6, 1-cyclopropyl-7-(4-(2-(3,5-dioxopyrazolidin-1-yl)-2-oxoethyl)piperazin-1-yl)-6-fluoro-4-oxo-1,4-dihydroquinoline-3-carboxylic acid], the half-inhibitory concentration (IC50) was 0.92 ± 0.05 µM, the inhibition at 0.1 µM came to 28%, the inhibition at 1 µM was 51.9% and the inhibition at 10 µM was found to be 76.3%. Moreover, the inhibition at 100 µM worked out at 87.4%.

A word on the IC50: it is the point on the concentration scale where inhibition reaches its midpoint. In general, inhibition refers to the drop in the measured response relative to a control, in per cent.

The record behind these values is article PMC9635472, “Design, synthesis, and biological evaluation of novel ciprofloxacin derivatives as potential anticancer agents targeting topoisomerase II enzyme” (Journal of Enzyme Inhibition and Medicinal Chemistry, 2022).
